Results on two compounds are retold here after patent US7365174B2, “Azalide and azalactam derivatives and method for producing the same” (Meiji Seika Kaisha, Ltd., priority 2003, dated 2008).

Holding throughout (assay): Antibacterial activity test (agar dilution MIC)
Holding throughout (type): cell-based
Background: In agar dilution the substance is mixed into plates at graded concentrations.

For test [1], the system named is Streptococcus pneumoniae TH-662. The conditions noted are these: read-out: Minimum inhibitory concentration (MIC). As to the method: (§1) In vitro antibacterial activities of the compounds of Examples 13, 28, 35, 43, 53 to 55, 64, 70, 84, 90, 94, 95, 108, 128, and 129 were measured as follows by referring to the standard method of the Japanese Society of Chemotherapy (Chemotherapy, Vol. 29, pp. 76-79, 1981). The antibacterial activity of midecamycin (MDM) was similarly measured for comparison.
(§2) Using each solution of the test substance prepared in methanol at a concentration of […], 2-fold serial dilutions were prepared by using methanol. Each of the prepared solutions of the test substances was put into a petri dish in a volume of 200 μl, added with 10 ml of agar medium for sensitivity measurement added with 5% horse sterile defibrinated blood, 15 μg/ml of β-nicotinamide-adenine dinucleotide, and 2.5 μg/ml of Hemin, and mixed for dilution to prepare an agar plate containing a test substance. A predetermined volume of a liquid medium for sensitivity measurement, prepared so as to contain a given number of test bactera, was inoculated on the agar plate containing a test substance by using a micro planter (Sakuma Seisakusho), and after the inoculation, the bacteria were cultured at 37° C. for about 20 hours. After the culture, presence or absence of growth of the test bacteria on the plate was observed by visual inspection, and the minimum concentration at which growth was not observed was determined as the minimum inhibitory concentration (MIC) of the test sustance.

In test [2] the test system is Haemophilus influenzae 9334. To be noted: read-out: Minimum inhibitory concentration (MIC). As to the method:
as §1, §2

Test [3] concerns Staphylococcus aureus 209P JC-1. To be noted: read-out: Minimum inhibitory concentration (MIC). As to the method:
as §1, §2

The subject of test [4] is Streptococcus pyogenes Cook. To be noted: read-out: Minimum inhibitory concentration (MIC). Here is the method: as §1, §2
In test [5] the test system is Moraxella catarrhalis W-0506. The conditions noted are these: read-out: Minimum inhibitory concentration (MIC). Here is the method: as §1, §2
The subject of test [6] is Streptococcus pneumoniae IP692. To be noted: read-out: Minimum inhibitory concentration (MIC). As to the method:
as §1, §2

Test [7] has as its system Streptococcus pneumoniae DP1 TypeI. The conditions noted are these: DP1TYPEI, read-out: Minimum inhibitory concentration (MIC). Here is the method:
as §1, §2

Converted amounts (≈) assume the structure as drawn. Read-outs that look alike come from different tables or passages of the source.

Regarding `CCCC(=O)O[C@H]1C(C)O[C@@H](O[C@@H]2C(C)O[C@@H](O[C@H]3[C@@H](CC=O)C[C@@H](C)[C@@H](O)CN(C)CCC[C@H](C/C=C/c4cncc5ccccc45)OC(=O)C[C@@H](O)[C@@H]3OC)C(O)C2N(C)C)CC1(C)OC(=O)CC` (some centres unmarked) [Example 129], the MIC in test [1] (TH662, test bacterium D = Streptococcus pneumoniae TH-662, blood agar medium, 37° C., about 20 hours) was determined as 0.13 µg/mL (≈ 0.13 µM); in test [2] (test bacterium G = Haemophilus influenzae 9334, blood agar medium, 37° C., about 20 hours), 8 µg/mL (≈ 8 µM); in test [3] (test bacterium A = Staphylococcus aureus 209P JC-1, blood agar medium, 37° C., about 20 hours) it was 0.5 µg/mL (≈ 0.5 µM); in test [4] (test bacterium E = Streptococcus pyogenes Cook, blood agar medium, 37° C., about 20 hours), 0.06 µg/mL (≈ 0.06 µM); in test [5] (W0506, test bacterium F = Moraxella catarrhalis W-0506, blood agar medium, 37° C., about 20 hours), 1 µg/mL (≈ 1 µM); in test [6] (test bacterium C = Streptococcus pneumoniae IP692, blood agar medium, 37° C., about 20 hours), 0.03 µg/mL (≈ 0.03 µM). Besides, the MIC in test [7] (test bacterium B = Streptococcus pneumoniae DP1 TypeI, blood agar medium, 37° C., about 20 hours) turned out to be 0.015 µg/mL (≈ 0.015 µM).

For the compound `CCC(=O)O[C@@H]1CC(=O)O[C@H](C)C/C=C/C=C/[C@H](O)[C@H](C)C[C@H](CC=O)[C@H](O[C@@H]2O[C@H](C)[C@@H](O[C@H]3C[C@@](C)(O)[C@@H](OC(=O)CC)[C@H](C)O3)[C@H](N(C)C)[C@H]2O)[C@H]1OC` [MDM, midecamycin, reference compound], the MIC is more than 128 µg/mL in test [1] (Streptococcus pneumoniae, TH662, 20 h); 2 µg/mL (≈ 2.46 µM) in test [2] (Haemophilus influenzae, 9334, 20 h); 0.5 µg/mL (≈ 0.614 µM) in test [3] (Staphylococcus aureus, 209P, 20 h); 0.25 µg/mL (≈ 0.307 µM) in test [4] (Streptococcus pyogenes, 20 h); 2 µg/mL (≈ 2.46 µM) in test [5] (Moraxella catarrhalis, W0506, 20 h); 0.5 µg/mL (≈ 0.614 µM) in test [6] (Streptococcus pneumoniae, IP692, 20 h). Also, the MIC in test [7] (Streptococcus pneumoniae, 20 h) is 0.25 µg/mL (≈ 0.307 µM).
